According to PubChem BioAssay AID1963874 (Molecular Pharmacology Branch, DTP, NCI, 2024):

Tested on: 253994-281-T-J1-PDC KRAS-mutant spheroids with HUVEC/MSC, viability
Experiment: Anticancer human tumor 253994-281-T-J1-PDC patient-derived colorectal carcinoma cell line growth inhibition [KRAS2]
Conditions: for IC50: curve of first compound; for viability, T/C: stronger effect = lower value
Summary of the method: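 KRAS-mutant tumor cells were grown as spheroids with HUVEC endothelial cells and human MSCs as stroma. Targeted agents were tested alone and with KRAS pathway inhibitors. Doses started at or near clinical Cmax, or 10 microM, descending half-log.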

[1] = second compound 0.1 µM, first compound 0.00316 µM
[2] = second compound 0.1 µM, first compound 0.01 µM
[3] = second compound 0.1 µM, first compound 0.0316 µM
[4] = second compound 0.1 µM, first compound 0.1 µM
[5] = second compound 0.1 µM, first compound 0.316 µM
[6] = second compound 0.1 µM, first compound 1 µM
[7] = second compound 0.316 µM, first compound 0.00316 µM
[8] = second compound 0.316 µM, first compound 0.01 µM
[9] = second compound 0.316 µM, first compound 0.0316 µM
[10] = second compound 0.316 µM, first compound 0.1 µM
[11] = second compound 0.316 µM, first compound 0.316 µM
[12] = second compound 0.316 µM, first compound 1 µM
[13] = second compound 1 µM, first compound 0.00316 µM
[14] = second compound 1 µM, first compound 0.01 µM
[15] = second compound 1 µM, first compound 0.0316 µM
[16] = second compound 1 µM, first compound 0.1 µM
[17] = second compound 1 µM, first compound 0.316 µM
[18] = second compound 1 µM, first compound 1 µM
[19] = second compound 3.16 µM, first compound 0.00316 µM
[20] = second compound 3.16 µM, first compound 0.01 µM
[21] = second compound 3.16 µM, first compound 0.0316 µM
[22] = second compound 3.16 µM, first compound 0.1 µM
[23] = second compound 3.16 µM, first compound 0.316 µM
[24] = second compound 3.16 µM, first compound 1 µM
[25] = second compound 10 µM, first compound 0.00316 µM
[26] = second compound 10 µM, first compound 0.01 µM
[27] = second compound 10 µM, first compound 0.0316 µM
[28] = second compound 10 µM, first compound 0.1 µM
[29] = second compound 10 µM, first compound 0.316 µM
[30] = second compound 10 µM, first compound 1 µM
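Also: spheroids exposed to agents for seven days before readout.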
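For viability, T/C in this document: percent of DMSO vehicle control viability.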

`CCN1CCN(Cc2ccc(Nc3ncc(F)c(-c4cc(F)c5nc(C)n(C(C)C)c5c4)n3)nc2)CC1` + CC1OCC2(CCN(c3cnc(Sc4ccnc(N)c4Cl)c(N)n3)CC2)C1N was tested, and the IC50 (second compound 0.1 µM) was 715 nM, the IC50 (second compound 0.316 µM) was 422 nM and the IC50 (second compound 1 µM) was 186 nM. The IC50 (second compound 3.16 µM) was 51 nM, the IC50 (second compound 10 µM) was 12.2 nM and the viability, T/C [1] was 93.1%. It also gave a viability, T/C [2] of 102%, a viability, T/C [3] of 87.6% and a viability, T/C [4] of 79.9%. It also gave a viability, T/C [5] of 64.4%, a viability, T/C [6] of 44.2% and a viability, T/C [7] of 96%. It also gave a viability, T/C [8] of 90.6%, a viability, T/C [9] of 83.7% and a viability, T/C [10] of 62.4%. It also gave a viability, T/C [11] of 62.4%, a viability, T/C [12] of 33% and a viability, T/C [13] of 77.8%. The viability, T/C [14] was 76%, the viability, T/C [15] was 72.9% and the viability, T/C [16] was 57.7%. It also gave a viability, T/C [17] of 43.3%, a viability, T/C [18] of 32.2% and a viability, T/C [19] of 68.2%. For the same molecule, the viability, T/C [20] was 76.6%, the viability, T/C [21] was 47.1% and the viability, T/C [22] was 41.9%. It also gave a viability, T/C [23] of 39%, a viability, T/C [24] of 22.8% and a viability, T/C [25] of 57%. It also gave a viability, T/C [26] of 55.9%, a viability, T/C [27] of 39.3% and a viability, T/C [28] of 33%. For the same molecule, the viability, T/C [29] was 33% and the viability, T/C [30] was 15%.
`COc1cc2nccc(Oc3ccc(NC(=O)C4(C(=O)Nc5ccc(F)cc5)CC4)cc3)c2cc1OC` + CC1OCC2(CCN(c3cnc(Sc4ccnc(N)c4Cl)c(N)n3)CC2)C1N was tested, and the IC50 (second compound 0.1 µM) was > 10000 nM, the IC50 (second compound 0.316 µM) was 8230 nM and the IC50 (second compound 1 µM) was 7620 nM. The IC50 (second compound 3.16 µM) was 4840 nM, the IC50 (second compound 10 µM) was < 31.6 nM and the viability, T/C [3] was 99%. It also gave a viability, T/C [4] of 106%, a viability, T/C [5] of 89.8% and a viability, T/C [6] of 74.9%. The viability, T/C (second compound 0.1 µM, first compound 3.16 µM) was 81.2%, the viability, T/C (second compound 0.1 µM, first compound 10 µM) was 65.1% and the viability, T/C [9] was 87.8%. The viability, T/C [10] was 105%, the viability, T/C [11] was 96.3% and the viability, T/C [12] was 83.3%. It also gave a viability, T/C (second compound 0.316 µM, first compound 3.16 µM) of 75.2%, a viability, T/C (second compound 0.316 µM, first compound 10 µM) of 45% and a viability, T/C [15] of 74%. For the same molecule, the viability, T/C [16] was 83.1%, the viability, T/C [17] was 86.2% and the viability, T/C [18] was 84.9%. The viability, T/C (second compound 1 µM, first compound 3.16 µM) was 77.5%, the viability, T/C (second compound 1 µM, first compound 10 µM) was 41.4% and the viability, T/C [21] was 58.5%. It also gave a viability, T/C [22] of 64.8%, a viability, T/C [23] of 70.4% and a viability, T/C [24] of 64.7%. For the same molecule, the viability, T/C (second compound 3.16 µM, first compound 3.16 µM) was 65.6%, the viability, T/C (second compound 3.16 µM, first compound 10 µM) was 24.9% and the viability, T/C [27] was 29.6%. It also gave a viability, T/C [28] of 36.2%, a viability, T/C [29] of 50.5% and a viability, T/C [30] of 41.5%. For the same molecule, the viability, T/C (second compound 10 µM, first compound 3.16 µM) was 39.9% and the viability, T/C (second compound 10 µM, first compound 10 µM) was 14%.
In the case of `Cn1ncnc1[C@H]1c2n[nH]c(=O)c3cc(F)cc(c23)N[C@@H]1c1ccc(F)cc1` + CC1OCC2(CCN(c3cnc(Sc4ccnc(N)c4Cl)c(N)n3)CC2)C1N, the IC50 (second compound 0.1 µM) is reported as > 100 nM, the IC50 (second compound 0.316 µM) is reported as > 100 nM and the IC50 (second compound 1 µM) is reported as > 100 nM. The IC50 (second compound 3.16 µM) was > 100 nM, the IC50 (second compound 10 µM) was < 0.316 nM and the viability, T/C (second compound 0.1 µM, first compound 0.000316 µM) was 94.9%. The viability, T/C (second compound 0.1 µM, first compound 0.001 µM) was 94.9%, the viability, T/C [1] was 99.9% and the viability, T/C [2] was 109%. It also gave a viability, T/C [3] of 103%, a viability, T/C [4] of 94.4% and a viability, T/C (second compound 0.316 µM, first compound 0.000316 µM) of 95.5%. The viability, T/C (second compound 0.316 µM, first compound 0.001 µM) was 83.6%, the viability, T/C [7] was 98.6% and the viability, T/C [8] was 85.5%. The viability, T/C [9] was 87.2%, the viability, T/C [10] was 76.8% and the viability, T/C (second compound 1 µM, first compound 0.000316 µM) was 85.7%. For the same molecule, the viability, T/C (second compound 1 µM, first compound 0.001 µM) was 86%, the viability, T/C [13] was 93.2% and the viability, T/C [14] was 73.1%. The viability, T/C [15] was 74.8%, the viability, T/C [16] was 80.8% and the viability, T/C (second compound 3.16 µM, first compound 0.000316 µM) was 67.1%. The viability, T/C (second compound 3.16 µM, first compound 0.001 µM) was 58.3%, the viability, T/C [19] was 71.4% and the viability, T/C [20] was 66%. It also gave a viability, T/C [21] of 63.6%, a viability, T/C [22] of 55.5% and a viability, T/C (second compound 10 µM, first compound 0.000316 µM) of 46.8%. It also gave a viability, T/C (second compound 10 µM, first compound 0.001 µM) of 47.1%, a viability, T/C [25] of 33.4% and a viability, T/C [26] of 40.1%. For the same molecule, the viability, T/C [27] was 44.2% and the viability, T/C [28] was 32.3%.
